Where two headings read alike, the source gives them in different places.
Assay: PK studies of formulations, plasma by HPLC-MS/MS
Format: in vivo
Details: bovine, plasma, 1.25 mg/kg, Cattle, 1.25 mg/kg; for AUC: read-out: AUC; for Cmax: read-out: Cmax; for Tmax: read-out: Tmax
Protocol: The following formulations were prepared and administered to animals. Blood samples were collected at pre-defined time points and the amount of compound present in plasma at the time of sampling was determined by HPLC-MS/MS. Pharmacokinetic parameters were then calculated: Cmax, Tmax, Tlast, AUC. [table]

[1] = sc, Form A50 (NMP, propylene glycol, water)
[2] = sc, Form B62.5 (dimethyl acetamide, propylene glycol, water)
[3] = sc, FormC62.5 (propylene glycol, ethanol, Transcutol P)
[4] = sc, FormD62.5 (PEG 300, ethanol, Transcutol P)
[5] = sc, FormE62.5 (polyethylene glycol 300, ethyl alcohol 96%, water)
[6] = sc, FormF62.5 (polyethylene glycol, 1-octanol, 2-pyrrolidone)
[7] = sc, FormG62.5 (benzyl alcohol, ethyl alcohol 96%, polyethylene glycol 300)
[8] = sc, FormH62.5 (DMA, DMSO, 2-pyrrolidone)
[9] = sc, FormK62.5 (2-pyrrolidone, Transcutol P, ethyl lactate)
[10] = sc, FormL50 (DMA, propylene glycol, water)
[11] = sc, FormP62.5 (L-tartaric acid, 2-pyrrolidone, NaOH, water)
[12] = sc, pH 4.3, FormQ62.5 (L-tartaric acid, sodium carboxymethyl cellulose, NaOH up to pH 4.3, water)
[13] = sc, pH 4.4, Form O62.5 (FormO type: L-tartaric acid, NaOH to pH 4.4, water)
[14] = sc, pH 4.6, FormM62.5 (L-tartaric acid, sodium hydroxide up to pH 4.6, water)
[15] = FormJ62.5 (DMSO, 2-pyrrolidone, ethyl lactate), SC

**Q.** For `CCOc1cc(NCCNC(=O)/C=C/C(F)(F)F)ccn1` [Compound 4, (E)-N-[2-[(2-ethoxy-4-pyridyl)amino]ethyl]-4,4,4-trifluoro-but-2-enamide], which AUC [1] is on record?
**A.** 204 ng·h/mL

**Q.** And the Cmax [1]?
**A.** 127 ng/mL

**Q.** And the Tmax [1]?
**A.** 26.4 min

**Q.** And the AUC [2]?
**A.** 98.2 ng·h/mL

**Q.** What about the Cmax [2] of the same compound?
**A.** 37.4 ng/mL

**Q.** And the Tmax [2]?
**A.** 30 min

**Q.** What about the AUC [3] of the same compound?
**A.** 130 ng·h/mL

**Q.** And the Cmax [3]?
**A.** 46.4 ng/mL

**Q.** What about the Tmax [3] of the same compound?
**A.** 39.6 min

**Q.** What about the AUC [4] of the same compound?
**A.** 63.2 ng·h/mL

**Q.** What about the Cmax [4] of the same compound?
**A.** 25.4 ng/mL

**Q.** And the Tmax [4]?
**A.** 55.2 min

**Q.** What about the AUC [5] of the same compound?
**A.** 76.4 ng·h/mL

**Q.** And the Cmax [5]?
**A.** 45.7 ng/mL

**Q.** And the Tmax [5]?
**A.** 25.2 min

**Q.** And the AUC [6]?
**A.** 78.5 ng·h/mL

**Q.** And the Cmax [6]?
**A.** 15.2 ng/mL

**Q.** And the Tmax [6]?
**A.** 37.8 min

**Q.** What about the AUC [7] of the same compound?
**A.** 44.8 ng·h/mL

**Q.** What about the Cmax [7] of the same compound?
**A.** 12.5 ng/mL

**Q.** And the Tmax [7]?
**A.** 140 min

**Q.** And the AUC [8]?
**A.** 88.2 ng·h/mL

**Q.** And the Cmax [8]?
**A.** 42.1 ng/mL

**Q.** What about the Tmax [8] of the same compound?
**A.** 40.2 min

**Q.** And the AUC [9]?
**A.** 86 ng·h/mL

**Q.** What about the Cmax [9] of the same compound?
**A.** 29.9 ng/mL

**Q.** And the Tmax [9]?
**A.** 49.8 min

**Q.** What about the AUC [10] of the same compound?
**A.** 59.8 ng·h/mL

**Q.** What about the Cmax [10] of the same compound?
**A.** 28.1 ng/mL

**Q.** What about the Tmax [10] of the same compound?
**A.** 40.2 min

**Q.** What about the AUC [11] of the same compound?
**A.** 322 ng·h/mL

**Q.** What about the Cmax [11] of the same compound?
**A.** 94.2 ng/mL

**Q.** What about the Tmax [11] of the same compound?
**A.** 49.8 min

**Q.** What about the AUC [12] of the same compound?
**A.** 356 ng·h/mL

**Q.** And the Cmax [12]?
**A.** 297 ng/mL

**Q.** What about the Tmax [12] of the same compound?
**A.** 34.8 min

**Q.** What about the AUC [13] of the same compound?
**A.** 358 ng·h/mL

**Q.** And the Cmax [13]?
**A.** 300 ng/mL

**Q.** What about the Tmax [13] of the same compound?
**A.** 30 min

**Q.** What about the AUC [14] of the same compound?
**A.** 336 ng·h/mL

**Q.** What about the Cmax [14] of the same compound?
**A.** 350 ng/mL

**Q.** What about the Tmax [14] of the same compound?
**A.** 15 min

**Q.** What about the AUC [15] of the same compound?
**A.** 99.6 ng·h/mL

**Q.** What about the Cmax [15] of the same compound?
**A.** 37.1 ng/mL

**Q.** What about the Tmax [15] of the same compound?
**A.** 110 min
